The values that follow come from US20240358727A1, “MICROSCALE THERMOPHORESIS TO EVALUATE CHANNEL LIPID INTERACTIONS AND METHODS OF TREATING NAV CHANNELS RELATED DISEASES” (Northeastern University, priority 2023, published 2024).

Assay [1] deals with T1, Nav1.5-R1644C (Homo sapiens, UniProt Q14524, R1644C).
T1 construct: expressed in transfected cells; host or cells: HEK293T
Briefly: MST binding of diC8-PIP2 to GFP-Nav1.5-R1644C in cell lysate. Particulars: for affinity (Kd) of Nav1.5-R1644C relative to WT, fold lower: R1644C vs WT. On the procedure:
(§1) The method utilizes cell lysates obtained from transfected/infected cells that are lysed and incubated with varying concentrations of a water-soluble analogue of PIP2 commercially available as diC8-PI(4,5)P2, in a 384 well plate. Other phosphoinositides such as diC8PI(4)P of diC8PI(5)P can also be utilized. After a brief incubation (10-30 mins) samples are loaded onto capillary chips purchased from the company Nanotemper. Samples are run on the Nanotemper Monolith instrument. This instrument is advertised to detect green fluorescent protein (GFP) tagged proteins, however we have also used TFP (teal FP) tagged proteins. The instrument provides a short infra-red laser pulse which produces a short thermal gradient. Protein that is interacting with the lipid migrates differently through this thermal gradient and its movement is evaluated by the fluorescence of the GFP/TFP tag on the protein. Based on the concentration of the dic8-phosphoinositide, this resolves into a sigmoidal relationship that delivers an apparent affinity (Kd) value. A test ligand can be added to this assay at a known concentration that is at or close to its Kd for the channel. A shift in the channel's affinity for PIP2 in this assay can help indicate whether this test compound is a good drug candidate for further biological experiments.
Results. Our studies were designed to evaluate PIP2-regulation for Nav1.5 channelopathies from multiple perspectives. Given that there is a lack of structural data to identify where, or how many PIP2 molecules bind to Nav1.5, we performed a docking simulation to identify putative PIP2 binding sites in the open, rat and human Nav1.5 cryoEM structures (PDB: 6UZ3 and 7DTC) (56-58). We observed four potential PIP2 binding sites at the boundary between the inner leaflet of the membrane and the cytoplasm with one at the interface between each voltage sensor and the channel body. In each case, we noted electrostatic and hydrogen bond interactions between the headgroup of PIP2 and multiple disease associated residues. […]

Assay [2] addresses T2, free GFP (Aequorea victoria, UniProt P42212).
T2 construct: expressed in transfected cells; host or cells: cell lysate
In words: MST binding of diC8-PIP2 to free GFP (negative control). On the procedure:
as §1
(§2) Results. […]

In assay [3] the target is T3, GFP-PHPLCδ (PIP2 biosensor) (Homo sapiens, UniProt P51178).
T3 construct: the pleckstrin homology domain of phospholipase C delta (GFP-PHPLCδ), a PIP2 biosensor; expressed in transfected cells; host or cells: cell lysate
T3 sequence (P51178 21-130 limits assumed): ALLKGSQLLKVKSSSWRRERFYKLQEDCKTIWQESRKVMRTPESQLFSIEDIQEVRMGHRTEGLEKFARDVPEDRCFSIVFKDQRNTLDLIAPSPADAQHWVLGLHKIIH
Briefly: MST binding of diC8-PIP2 to GFP-tagged PHPLCδ1 (positive control). On the procedure: as §1, §2

Each structure is given as a SMILES string. pKd: −log10 of the molar value. Where “and” joins values, the source holds several entries; their conditions need not be identical. Equal values may be shown once.

T1 sequence (Q14524 whole entry R1644C): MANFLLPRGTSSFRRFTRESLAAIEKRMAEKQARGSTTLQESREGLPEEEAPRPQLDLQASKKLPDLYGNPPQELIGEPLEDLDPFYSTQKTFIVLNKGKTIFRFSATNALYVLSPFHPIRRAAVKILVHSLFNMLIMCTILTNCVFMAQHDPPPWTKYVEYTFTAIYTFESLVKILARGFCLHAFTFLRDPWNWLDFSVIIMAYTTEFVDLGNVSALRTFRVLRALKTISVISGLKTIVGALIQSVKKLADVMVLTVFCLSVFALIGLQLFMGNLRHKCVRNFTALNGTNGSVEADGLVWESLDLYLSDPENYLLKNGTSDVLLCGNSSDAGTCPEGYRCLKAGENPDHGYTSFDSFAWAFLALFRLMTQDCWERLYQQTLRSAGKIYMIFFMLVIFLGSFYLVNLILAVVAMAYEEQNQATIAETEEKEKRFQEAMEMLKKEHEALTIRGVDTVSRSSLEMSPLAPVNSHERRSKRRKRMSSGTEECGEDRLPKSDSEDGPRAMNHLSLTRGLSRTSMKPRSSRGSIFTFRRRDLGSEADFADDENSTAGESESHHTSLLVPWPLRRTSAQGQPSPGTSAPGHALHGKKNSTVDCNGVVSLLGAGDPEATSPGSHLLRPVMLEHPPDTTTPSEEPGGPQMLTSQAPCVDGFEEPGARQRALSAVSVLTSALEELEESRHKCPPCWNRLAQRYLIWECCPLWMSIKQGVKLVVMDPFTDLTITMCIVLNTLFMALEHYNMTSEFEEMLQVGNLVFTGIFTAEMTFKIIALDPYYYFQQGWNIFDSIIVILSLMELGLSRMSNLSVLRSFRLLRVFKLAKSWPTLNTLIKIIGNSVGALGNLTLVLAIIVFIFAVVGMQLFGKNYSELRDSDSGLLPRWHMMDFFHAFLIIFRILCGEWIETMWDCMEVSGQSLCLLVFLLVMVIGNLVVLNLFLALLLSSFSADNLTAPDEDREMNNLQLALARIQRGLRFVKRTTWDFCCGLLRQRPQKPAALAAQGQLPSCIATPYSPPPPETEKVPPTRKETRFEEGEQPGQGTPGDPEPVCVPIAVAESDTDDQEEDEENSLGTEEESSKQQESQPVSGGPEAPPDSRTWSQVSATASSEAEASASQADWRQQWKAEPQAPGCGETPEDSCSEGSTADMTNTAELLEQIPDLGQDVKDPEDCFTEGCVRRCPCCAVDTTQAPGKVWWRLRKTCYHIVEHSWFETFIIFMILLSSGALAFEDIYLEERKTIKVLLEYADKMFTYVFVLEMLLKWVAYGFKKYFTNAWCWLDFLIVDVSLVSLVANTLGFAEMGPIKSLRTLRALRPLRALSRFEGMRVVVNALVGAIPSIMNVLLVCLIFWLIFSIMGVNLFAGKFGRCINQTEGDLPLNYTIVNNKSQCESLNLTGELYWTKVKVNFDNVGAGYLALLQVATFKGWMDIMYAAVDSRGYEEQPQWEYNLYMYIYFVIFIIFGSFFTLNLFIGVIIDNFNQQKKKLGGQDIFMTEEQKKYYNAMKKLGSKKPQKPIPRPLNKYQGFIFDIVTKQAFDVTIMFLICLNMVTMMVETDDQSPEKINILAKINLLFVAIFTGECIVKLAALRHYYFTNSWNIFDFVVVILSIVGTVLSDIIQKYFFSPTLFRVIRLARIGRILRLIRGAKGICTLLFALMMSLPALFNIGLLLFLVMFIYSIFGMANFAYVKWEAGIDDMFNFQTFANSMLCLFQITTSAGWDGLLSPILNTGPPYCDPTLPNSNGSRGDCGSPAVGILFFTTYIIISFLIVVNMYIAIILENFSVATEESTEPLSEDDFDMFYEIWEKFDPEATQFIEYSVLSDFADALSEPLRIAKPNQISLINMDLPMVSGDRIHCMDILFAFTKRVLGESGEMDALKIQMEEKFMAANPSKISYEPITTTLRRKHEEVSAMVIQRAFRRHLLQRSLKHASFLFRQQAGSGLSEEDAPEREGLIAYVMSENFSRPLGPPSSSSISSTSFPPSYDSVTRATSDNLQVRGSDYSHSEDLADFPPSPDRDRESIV

As a reminder, the pKd is the negative decadic logarithm of the Kd, by convention in mol/L. Turning to `CCCCCCCC(=O)OC[C@H](COP(=O)(O)O[C@@H]1[C@H](O)[C@H](O)[C@@H](OP(=O)(O)O)[C@H](OP(=O)(O)O)[C@H]1O)OC(=O)CCCCCCC` [diC8-PIP2], the pKd in assay [1] (Kd of diC8-PIP2 for Nav1.5-R1644C, GFP-Nav1.5-R1644C, HEK293T lysate) is 6.46 and 6.35; in assay [2], below 3.10; in assay [3], 6.89. In addition, the “affinity (Kd) of Nav1.5-R1644C relative to WT, fold lower” value is ~8 fold and ~10 fold in assay [1]; “almost ten-fold lower” in assay [1] (listed as diC8PI(4,5)P2). Moreover, the “binding of diC8-PIP2 to free GFP” value in assay [2] (MST negative control) is reported as “does not bind”.
